Structures can show the parent of a compound that is named as a salt.
Columns and labels:
[1] = tested on: nasal resistance in anesthetized dogs; experiment: Effect on airway (nasal) resistance in anesthetized dogs following intranasal spray administration; assay type: in vivo, beagle dog; details: aerosol, mg per dog
Protocol: (§1) a. Method Beagle dogs of either sex, weighing 9-12 kg were anesthetized with nembutal (30 mg/kg, intravenously) with supplemental doses administered throughout the experiment as required. The dogs were intubated with a cuffed endotracheal tube and were ventilated with room air by means of a Harvard respiration pump. Arterial blood pressure was recorded from a femoral artery using a Statham P23Gb pressure transducer. A tachygraphic recording of heart rate was obtained from the blood pressure signal.
(§2) A constant flow of air (2 liters/minute); provided by an anesthetic machine (CAECO) was administered into a nasal cavity through a 6 cm long plastic tube tapered to a diameter of 6 mm to fit into the right nostril. The air perfused the nasal cavity and exited through the mouth. The resistance to the air flow exerted by the large surface area of the nasal mucosa was measured as a nasal pressure in cm of water, using Model MP 45 Validyne transducer. […] Since the amount of drug administered in this way is extremely small and not directly measurable, the doses were calculated from the concentration of drug in the humidifier and volume of fluid used in each administration (in mg per dog). The nasal resistance, heart rate and blood pressure were monitored prior to and then 2 hours following the drug administration. […]

[2] = Blood pressure and heart rate in anesthetized dogs following intranasal spray administration; assay type: in vivo, beagle dog
Protocol: as §1, §2

[3] = tested on: nasal mucosa of rats; experiment: Effect on Nasal Irritation in Rats; assay type: in vivo, rat (CD strain)
Protocol: The product of Example 4 was dissolved in phosphate buffered normal saline and adjusted to a pH of approximately 7. The solution was prepared at the following concentrations: 0.05, 0.15, 0.5 and 1.5 percent. Groups of five male rats (CD strain) were administered each dose. The rats were approximately 5 weeks old at the start of treatment. Prior to dosing, ketaminehydrochloride was administered intraperitoneally to produce transient anesthesia to facilitate test compound administration. Rats in each group were given 0.04 mL/day of the appropriate solution for 14 days. The dosage was divided equally between both nostrils (i.e., 0.02 mL/nostril/day).

[4] = tested on: nasal mucosa; details: background art; cited from earlier work
[5] = up to 1.5%, 0.04 mL/day intranasal, 14 days

Row | SMILES | threshold dose producing decrease of nasal resistance [1] [mg] | systematic hemodynamic effects ([2]; at the effective nasal decongestant dose) | elevation of the blood pressure above the base level ([2]; highest tested dose, 1.65 mg) | nasal mucosal injury [3, 5] | systemic toxic effects [3, 5] | toxicity or nasal injury ([3]; 0.05% to 0.15% concentrations) | nasal mucosal injury ([3]; 0.5% and 1.5% concentration) | systemic side effects and deaths ([3]; 0.5% and 1.5%, repeated administration) | irritation of the nasal mucosa [4]
1 | Nc1c(Cl)cc(CC2=NCCN2)cc1Cl [Example 4, 2-[(3,5-Dichloro-4-aminobenzyl)]imidazoline hydrochloride] | 0.00165 | devoid of any systematic hemodynamic effects | approximately 10% | no nasal mucosal injury | no nasal mucosal injury or any systemic toxic effects | – | – | – | –
2 | Cc1cc(C(C)(C)C)c(O)c(C)c1CC1=NCCN1 [oxymetazoline] | – | – | – | – | – | did not cause any toxicity or nasal injury | induced nasal mucosal injury | Systemic side effects and deaths occurred in most animals | often cause irritation of the nasal mucosa
3 | c1ccc2c(CC3=NCCN3)cccc2c1 [naphazoline] | – | – | – | – | – | – | – | – | often cause irritation of the nasal mucosa

From patent publication US4665095A, “Use of 2-[(3,5-dihalo-4-aminobenzyl)]imidazolines to stimulate alpha-1 adrenergic receptors and to treat nasal congestion” (Abbott Laboratories, priority 1985, dated 1987)
